Test results published in paper PMC6831561, “Pharmacological and Behavioral Effects of the Synthetic Cannabinoid AKB48 in Rats” (Frontiers in Neuroscience, 2019).

Tests used:
hepatocyte model = settings: ref Gandhi et al., 2013; cited from earlier work
rats [1] = experiment: Acoustic response test; format: in vivo
Description: Acoustic response measures the reflex of the rat in reply to an acoustic stimulus produced behind the animal. Four acoustic stimuli of different intensities and frequencies were tested (see [Marti et al., 2019]). Each sound test was repeated three times, giving a value of 1 if there was a response and 0 if not present, for a total score of 3 for each sound. The acoustic total score was calculated by adding scores obtained in the four tests (overall score 12). Evaluation of the […] was measured at 0, 10, 30, 60, 120, and 180 min post-injection.

rats [2] = experiment: Tail pinch test (acute mechanical nociception); format: in vivo
Description: Acute mechanical nociception was evaluated using the tail pinch tests (modified by [Vigolo et al., 2015]). A special rigid probe connected to a digital dynamometer (ZP-50N, IMADA, Japan) was gently placed on the tail (in the distal portion), and progressive pressure was applied. When the rat flicked its tail, the pressure was stopped, and the digital instrument saved the maximum peak of weight supported (g/force). A cut-off (500 g/force) was set to avoid tissue damage. The test was repeated three times, and the final value was calculated with the average of three obtained scores. Acute mechanical nociception was measured at 0, 20, 40, 70, 140, and 195 min post-injection.

rats [3] = experiment: Conditioned place preference paradigm; format: in vivo
Description: The CPP chambers consisted of two equally sized compartments interconnected by a guillotine door, adopting a classical conditioning procedure that has been successfully used to assess the rewarding properties of several drugs of abuse. The compartments are differentiated by both visual and tactile cues: the color of the walls in each compartment (white or black) and the texture of the floors (wooden flat or metal wired). The box was placed in a dimly illuminated room. Place conditioning morning sessions ran from 8:30 a.m. to noon, while afternoon sessions ran from 2:30 p.m. to 6 p.m.
According to the conditioned place preference paradigm, on day 0 (pre-test), rats freely explored the two compartments for 15 min, and the time spent in each compartment during the exploratory period was measured. Rats that spent 60–70% of the total time on one side were excluded from the experiment. We used an unbiased-like protocol and assigned the drug-paired compartment randomly. On days 1–3 (conditioning phase), male Sprague-Dawley rats (n = 24) were divided into three groups (n = 8 per group) and given injections of AKB48 (0.1 or 0.5 mg/kg) or vehicle twice daily (9:00 a.m. to 7:00 p.m.) and confined to one compartment for 30 min for 3 days. During these conditioning trials, the animals developed an association between the subjective state produced by the drug and the environmental cues present in the compartment in which they received the drug. On day 4 (test day), rats were allowed to explore the two compartments freely for 15 min, and the time spent in each compartment during the exploratory period was measured.
To evaluate if the aversive effect obtained with the higher dose of AKB48 (0.5 mg/kg) was mediated by activation of CB1 cannabinoid receptors, male Sprague-Dawley rats (n = 32) were divided into four groups (n = 8 per group). Group 1 received AKB48 vehicle in both compartments and served as a control. […] CB1 antagonist was injected 20 min before the agonist AKB48, which was given 10 min prior to the test.

rats [4] = experiment: Visual object response test; format: in vivo
Description: Visual response was verified by two behavioral tests that evaluated the ability of the rat to capture visual information even when stationary (the visual object response) or when moving (the visual placing response). The visual object response test was used to evaluate the ability of the rat to see an object approaching from the front or the side, inducing the animal to shift or turn its head or to retreat (modified from [Ossato et al., 2015]; [Marti et al., 2019]). For the frontal visual response, a white horizontal bar was moved frontally to the rat’s head; the maneuver was repeated three times. For the lateral visual response, a small dentist’s mirror was moved into the rat’s field of view in a horizontal arc until the stimulus was between the rat’s eyes. The procedure was conducted bilaterally and was repeated three times. The score assigned was a value of 1 if there was a reflection in the rat movement or 0 if not. The total value was calculated by adding the scores obtained in the frontal with that obtained in the lateral visual object response (overall score 9). Evaluation of the visual object response was measured at 0, 10, 30, 60, 120, and 180 min post-injection. The visual placing response test was performed using a tail suspension-modified apparatus able to bring the rat toward the floor at a constant speed of 10 cm/sec (modified from [Ossato et al., 2015]; [Marti et al., 2019]). The downward movement of the rat was videotaped. Frame-by-frame analysis allowed us to evaluate the beginning of the reaction of the rat while it was close to the floor. When the rat started the reaction, an electronic ruler evaluated the perpendicular distance in millimeters between the eyes of the rat to the floor. The naïve rats perceived the floor and prepared for contact at a distance of about 27 ± 4.5 mm. Evaluation of the visual placing response was measured at 0, 15, 35, 65, 125, and 190 min post-injection.

rats [5] = experiment: Bar test (catalepsy); format: in vivo
Description: In the bar test, the rat’s forelimbs were placed on a bar made of plastic (height 6 cm). The time spent on the bar was measured (immobility cut-off: 20 sec), and akinesia was calculated as the total time spent on the bar after three consecutive trials (total maximal time of catalepsy: 60 s; [De Luca et al., 2015]; [Canazza et al., 2016]). The bar test was performed at 0, 20, 40, 70, 140, and 195 min post-injection.

rats [6] = experiment: Cardiorespiratory analysis (heart rate, breath rate, SpO2); format: in vivo
Description: During the experiment, the rat was allowed to freely move in a cage (40 × 40 × 30 cm) with no access to food and water while being monitored by the sensor collar through MouseOx Plus (STARR Life Sciences® Corp., Oakmont, PA, United States) software. In the first hour of acclimation, a fake collar similar to the real one used in the test but with no sensor was used to minimize the potential stress during the experiment. Then, the real collar (with sensor) was replaced, and baseline parameters were monitored for 60 min.

[7] = AKB48 highest dose (3 mg/kg), after 60 min from injection
[8] = AM251 1 mg/kg i.p. before AKB48 3 mg/kg i.p.
[9] = AM251 1 mg/kg i.p. before AKB48 3 mg/kg

## CCCCCn1nc(C(=O)NC23CC4CC(CC(C4)C2)C3)c2ccccc21 [AKB48, N-(1-adamantyl)-1-pentyl-1H-indazole-3-carboxamide]
Hepatocyte model
  number of major metabolites: 11
Rats [1]; AKB48, only at the highest dose (3 mg/kg i.p.)
  acoustic response: reduced
Rats [1]; AKB48 highest dose (3 mg/kg i.p.)
  persistence of the reduction of acoustic response: up to 120 min
Rats [2]; AKB48 0.1–3 mg/kg i.p.
  threshold to acute mechanical pain stimulus (tail pinch test): slightly increased
Rats [3]; AKB48 0.1 mg/kg
  conditioned place preference: ineffective
Rats [3]; AKB48 0.5 mg/kg
  conditioned place preference: significant aversive effect
Rats [4]; AKB48 0.3 mg/kg i.p.
  persistence of the reduction of visual object response: transient
Rats [4]; AKB48 0.1–3.0 mg/kg i.p., 180 min observation
  visual object response: dose-dependently reduced
Rats [4]; AKB48 0.5 and 3.0 mg/kg i.p.
  persistence of the reduction of visual object response: up to 180 min
Rats [5]; AKB48 0.1–3 mg/kg i.p.
  time spent on the bar: slightly increased
Rats [6]; AKB48 3.0 mg/kg i.p.
  duration of the heart rate decrease: about 90 min
  time at which the heart rate effect disappeared: 180 min
Rats [6]; AKB48 3.0 mg/kg i.p., after 30 min from injection
  reduction of heart rate: ~36%
Rats [6]; AKB48 highest dose (3 mg/kg)
  time at which the SpO2 effect disappeared: 120 min
  time at which the breath rate effect disappeared: 120 min
Rats [6]; [7]
  reduction of SpO2 saturation: ~10%
  reduction of breath rate: ~30%

## Cc1c(C(=O)NN2CCCCC2)nn(-c2ccc(Cl)cc2Cl)c1-c1ccc(I)cc1 [AM251, 1-(2,4-dichlorophenyl)-5-(4-iodophenyl)-4-methyl-N-(piperidin-1-yl)-1H-pyrazole-3-carboxamide, reference compound]
Rats [1]; AM251 1 mg/kg i.p. alone (data not shown)
  acoustic response, AM251 alone: did not alter
Rats [1]; [8]
  inhibition of acoustic response induced by AKB48, after AM251 pre-treatment: prevented
Rats [2]; AM251 1 mg/kg i.p. alone
  threshold to acute mechanical pain stimuli, AM251 alone: did not alter
Rats [2]; [9]
  AKB48 effect on mechanical pain threshold, after AM251 pre-treatment: prevented
Rats [3]; AM251 1 mg/kg i.p. + AKB48 0.5 mg/kg
  aversive effect of AKB48 on place preference, with AM251: blocked
Rats [4]; AM251 1 mg/kg i.p. alone
  visual object response, AM251 alone: did not alter
Rats [4]; [8]
  inhibition of visual object response induced by AKB48, after AM251 pre-treatment: prevented
Rats [5]; AM251 1 mg/kg i.p. alone
  catalepsy, AM251 alone: did not induce catalepsy
Rats [5]; [9]
  AKB48 effect on time spent on the bar, after AM251 pre-treatment: prevented
